In patent US20060069132A1, “Azolecarboxamide herbicides” (priority 2004, published 2006):
Like-named read-outs stand apart in the source and are kept apart here.

Tests used:
large crabgrass = assay: Test B pre-/postemergence herbicide test; assay type: in vivo, Digitaria sanguinalis; conditions: Digitaria sanguinalis; for pest or weed control at 500 g/ha: 500 g ai/ha; for pest or weed control at 125 g/ha: 125 g ai/ha
Summary of the method: (§1)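 Test chemicals in a non-phytotoxic solvent mixture with surfactant were applied preemergence to seeded species and postemergence to plants 2-18 cm tall (1- to 4-leaf stage); rice and barnyardgrass were also tested in a flooded paddy at the 2-leaf stage. Visual rating versus controls after 13-15 days in greenhouse, scale 0 (no effect) to 100 (complete control).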

rice = assay: Test B flooded paddy test; assay type: in vivo, Oryza sativa; conditions: Oryza sativa, 336 h, 1000 g ai/ha, visual rating, scale 0 to 100 (0 no effect, 100 complete control), 13 to 15 days, read-out: Rice plant response rating
Summary of the method: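 Paddy species grown to the 2-leaf stage under flooding; blackgrass sprayed postemergence at 2–18 cm (1- to 4-leaf stage). Plants kept in a greenhouse for 13 to 15 days, then visually rated against controls on 0 (no effect) to 100 (complete control).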

wild oat = assay: Test B postemergence herbicide test; assay type: in vivo, Avena fatua; conditions: scale 0 (no effect) to 100 (complete control)
Summary of the method: (§2)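 Greenhouse test; postemergence application to plants at 1–4 leaves (2–18 cm); paddy species at 2 leaves; evaluated visually vs controls at 13–15 days; scale 0–100 (100 = complete control).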

lambsquarters = assay: Test B pre-/postemergence herbicide test; assay type: in vivo, Chenopodium album; conditions: Chenopodium album, 336 h; for pest or weed control at 500 g/ha: 500 g ai/ha; for pest or weed control at 125 g/ha: 125 g ai/ha
Summary of the method: as §1

barnyardgrass [1] = assay: Test B pre-/postemergence herbicide test; assay type: in vivo, Echinochloa crus-galli; conditions: Echinochloa crus-galli; for pest or weed control at 500 g/ha: 500 g ai/ha; for pest or weed control at 125 g/ha: 125 g ai/ha
Summary of the method: (§3)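 Seeds were planted and treated preemergence with compounds formulated in a non-phytotoxic solvent mixture containing surfactant, while plants at the 1- to 4-leaf stage (2 to 18 cm) received postemergence sprays. Flooded paddy plants were grown to the 2-leaf stage. After 13 to 15 days in a greenhouse, injury was visually rated 0–100 against untreated controls.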

blackgrass = assay: Test B postemergence herbicide test; assay type: in vivo, Alopecurus myosuroides; conditions: Postemergence, 500 g ai/ha; visual rating after 13 to 15 days, scale 0 (no effect) to 100 (complete control)
Summary of the method: (§4)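 Postemergence plants were sprayed with formulated test chemicals at 2 to 18 cm height (1- to 4-leaf stage); paddy species were grown to the 2-leaf stage. After 13 to 15 days in a greenhouse, injury was rated visually against untreated controls on a 0–100 scale (0 = no effect, 100 = complete control).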

giant foxtail = assay: Test B pre-/postemergence herbicide test; assay type: in vivo, Setaria faberi; conditions: Setaria faberi, 336 h; for pest or weed control at 500 g/ha: 500 g ai/ha; for pest or weed control at 125 g/ha: 125 g ai/ha
Summary of the method: as §1

morningglory = assay: Test B pre-/postemergence herbicide test; assay type: in vivo, Ipomoea coccinea; conditions: Ipomoea, 336 h; for pest or weed control at 500 g/ha: 500 g ai/ha; for pest or weed control at 125 g/ha: 125 g ai/ha
Summary of the method: as §3

ducksalad = assay: Test B flooded paddy test; assay type: in vivo, Heteranthera limosa; conditions: Heteranthera limosa, 336 h, 1000 g ai/ha, visual rating, scale 0 to 100 (0 no effect, 100 complete control), 13 to 15 days, read-out: Ducksalad plant response rating
Summary of the method: as §4

Surinam grass = assay: Test B pre-/postemergence herbicide test; assay type: in vivo, Urochloa decumbens; conditions: Urochloa decumbens; for pest or weed control at 500 g/ha: 500 g ai/ha; for pest or weed control at 125 g/ha: 125 g ai/ha
Summary of the method: as §1

wheat = assay: Test B postemergence herbicide test; assay type: in vivo, Triticum aestivum; conditions: scale 0 (no effect) to 100 (complete control)
Summary of the method: as §2

[2] = tested on: small flower umbrella sedge; assay: Test B flooded paddy test; assay type: in vivo, Cyperus difformis; conditions: Cyperus difformis, 336 h, 1000 g ai/ha, visual rating, scale 0 to 100 (0 no effect, 100 complete control), 13 to 15 days, read-out: Sedge, Umbrella plant response rating
Summary of the method: as §4

pigweed = assay: Test B pre-/postemergence herbicide test; assay type: in vivo, Amaranthus retroflexus; conditions: Amaranthus retroflexus, 336 h; for pest or weed control at 500 g/ha: 500 g ai/ha; for pest or weed control at 125 g/ha: 125 g ai/ha
Summary of the method: as §1

barnyardgrass [3] = assay: Test B flooded paddy test; assay type: in vivo, Echinochloa crus-galli; conditions: Echinochloa crus-galli, 336 h, 1000 g ai/ha, visual rating, scale 0 to 100 (0 no effect, 100 complete control), 13 to 15 days, read-out: Barnyardgrass plant response rating
Summary of the method: as §4

cocklebur = assay: Test B pre-/postemergence herbicide test; assay type: in vivo, Xanthium strumarium; conditions: Xanthium strumarium; for pest or weed control at 500 g/ha: 500 g ai/ha; for pest or weed control at 125 g/ha: 125 g ai/ha
Summary of the method: as §3

corn = assay: Test B pre-/postemergence herbicide test; assay type: in vivo, Zea mays; conditions: Zea mays
Summary of the method: as §1

[4] = Postemergence, 500 g ai/ha, visual rating after 13 to 15 days

For `CCn1nc(C(C)(C)C)cc1C(=O)Nc1cccc2c1CN(C)C2=O` [Compound 55, N-(2,3-dihydro-2-methyl-1-oxo-1H-isoindol-4-yl)-3-(1,1-dimethylethyl)-1-ethyl-1H-pyrazole-5-carboxamide], the pest or weed control at 500 g/ha (large crabgrass; post-emergence, Postemergence, visual rating after 13 to 15 days, scale 0 (no effect) to 100 (complete control), read-out: Plant response rating, Crabgrass, Large) was 10%, the pest or weed control at 125 g/ha (large crabgrass; post-emergence, postemergence, visual rating, scale 0 (no effect) to 100 (complete control), read-out: Crabgrass, Large plant response rating) was 10% and the pest or weed control at 500 g/ha (large crabgrass; pre-emergence, Preemergence, scale 0 to 100, read-out: Crabgrass, Large plant response rating) was 100%. For the same compound, the pest or weed control at 125 g/ha (large crabgrass; pre-emergence, preemergence, 0 to 100 scale, 0 is no effect, 100 is complete control, read-out: Plant response rating, Crabgrass, Large) was 90%, the plant injury at 1000 g/ha (rice) was 70% and the pest or weed control at 125 g/ha (wild oat; Avena fatua, post-emergence, 336 h, postemergence, 125 g ai/ha, visual rating, read-out: Oat, Wild plant response rating) was 10%. The “Plant response rating, Oat, Wild” value (wild oat; [4]) was 20, the pest or weed control at 500 g/ha (lambsquarters; post-emergence, Postemergence, visual rating after 13 to 15 days, scale 0 (no effect) to 100 (complete control), read-out: Plant response rating, Lambsquarters) was 70% and the pest or weed control at 125 g/ha (lambsquarters; post-emergence, postemergence, visual rating, scale 0 (no effect) to 100 (complete control), read-out: Lambsquarters plant response rating) was 70%. For the same compound, the pest or weed control at 500 g/ha (lambsquarters; pre-emergence, Preemergence, scale 0 to 100, read-out: Lambsquarters plant response rating) was 100%, the pest or weed control at 125 g/ha (lambsquarters; pre-emergence, preemergence, 0 to 100 scale, 0 is no effect, 100 is complete control, read-out: Plant response rating, Lambsquarters) was 70% and the pest or weed control at 500 g/ha (barnyardgrass [1]; post-emergence, Postemergence, visual rating after 13 to 15 days, scale 0 (no effect) to 100 (complete control), read-out: Plant response rating, Barnyardgrass) was 10%. For the same compound, the pest or weed control at 125 g/ha (barnyardgrass [1]; post-emergence, postemergence, visual rating, scale 0 (no effect) to 100 (complete control), read-out: Barnyardgrass plant response rating) was 10%, the pest or weed control at 500 g/ha (barnyardgrass [1]; pre-emergence, Preemergence, scale 0 to 100, read-out: Barnyardgrass plant response rating) was 100% and the pest or weed control at 125 g/ha (barnyardgrass [1]; pre-emergence, preemergence, 0 to 100 scale, 0 is no effect, 100 is complete control, read-out: Plant response rating, Barnyardgrass) was 80%. For the same compound, the “Plant response rating, Blackgrass” value (blackgrass) was 10, the pest or weed control at 500 g/ha (giant foxtail; post-emergence, Postemergence, visual rating after 13 to 15 days, scale 0 (no effect) to 100 (complete control), read-out: Plant response rating, Foxtail, Giant) was 10% and the pest or weed control at 125 g/ha (giant foxtail; post-emergence, postemergence, visual rating, scale 0 (no effect) to 100 (complete control), read-out: Foxtail, Giant plant response rating) was 0%. It also gave a pest or weed control at 500 g/ha (giant foxtail; pre-emergence, Preemergence, scale 0 to 100, read-out: Foxtail, Giant plant response rating) of 100%, a pest or weed control at 125 g/ha (giant foxtail; pre-emergence, preemergence, 0 to 100 scale, 0 is no effect, 100 is complete control, read-out: Plant response rating, Foxtail, Giant) of 60% and a pest or weed control at 500 g/ha (morningglory; post-emergence, Postemergence, visual rating after 13 to 15 days, scale 0 (no effect) to 100 (complete control), read-out: Plant response rating, Morningglory) of 10%. It also gave a pest or weed control at 125 g/ha (morningglory; post-emergence, postemergence, visual rating, scale 0 (no effect) to 100 (complete control), read-out: Morningglory plant response rating) of 10%, a pest or weed control at 500 g/ha (morningglory; pre-emergence, Preemergence, scale 0 to 100, read-out: Morningglory plant response rating) of 10% and a pest or weed control at 125 g/ha (morningglory; pre-emergence, preemergence, 0 to 100 scale, 0 is no effect, 100 is complete control, read-out: Plant response rating, Morningglory) of 0%. The pest or weed control at 1000 g/ha (ducksalad) was 80%, the pest or weed control at 500 g/ha (Surinam grass; post-emergence, Postemergence, visual rating after 13 to 15 days, scale 0 (no effect) to 100 (complete control), read-out: Plant response rating, Surinam Grass) was 10% and the pest or weed control at 125 g/ha (Surinam grass; post-emergence, postemergence, visual rating, scale 0 (no effect) to 100 (complete control), read-out: Surinam Grass plant response rating) was 10%. The pest or weed control at 500 g/ha (Surinam grass; pre-emergence, Preemergence, scale 0 to 100, read-out: Surinam Grass plant response rating) was 80%, the pest or weed control at 125 g/ha (Surinam grass; pre-emergence, preemergence, 0 to 100 scale, 0 is no effect, 100 is complete control, read-out: Plant response rating, Surinam Grass) was 50% and the “Plant response rating, Wheat” value (wheat; [4]) was 10. It also gave a plant injury at 125 g/ha (wheat; Triticum aestivum, post-emergence, 336 h, postemergence, 125 g ai/ha, visual rating, read-out: Wheat plant response rating) of 10%, a pest or weed control at 1000 g/ha [2] of 80% and a pest or weed control at 500 g/ha (pigweed; post-emergence, Postemergence, visual rating after 13 to 15 days, scale 0 (no effect) to 100 (complete control), read-out: Plant response rating, Pigweed) of 40%. The pest or weed control at 125 g/ha (pigweed; post-emergence, postemergence, visual rating, scale 0 (no effect) to 100 (complete control), read-out: Pigweed plant response rating) was 10%, the pest or weed control at 500 g/ha (pigweed; pre-emergence, Preemergence, scale 0 to 100, read-out: Pigweed plant response rating) was 100% and the pest or weed control at 125 g/ha (pigweed; pre-emergence, preemergence, 0 to 100 scale, 0 is no effect, 100 is complete control, read-out: Plant response rating, Pigweed) was 80%. For the same compound, the pest or weed control at 1000 g/ha (barnyardgrass [3]) was 90%, the pest or weed control at 500 g/ha (cocklebur; post-emergence, Postemergence, visual rating after 13 to 15 days, scale 0 (no effect) to 100 (complete control), read-out: Plant response rating, Cocklebur) was 40% and the pest or weed control at 125 g/ha (cocklebur; post-emergence, postemergence, visual rating, scale 0 (no effect) to 100 (complete control), read-out: Cocklebur plant response rating) was 10%. For the same compound, the pest or weed control at 500 g/ha (cocklebur; pre-emergence, Preemergence, scale 0 to 100, read-out: Cocklebur plant response rating) was 10%, the pest or weed control at 125 g/ha (cocklebur; pre-emergence, preemergence, 0 to 100 scale, 0 is no effect, 100 is complete control, read-out: Plant response rating, Cocklebur) was 0% and the Corn plant response rating (crop injury, 0 = no effect, 100 = complete kill) at 500 g/ha (corn; post-emergence, Postemergence, 500 g ai/ha, visual rating after 13 to 15 days, scale 0 (no effect) to 100 (complete control)) was 30%. The plant injury at 125 g/ha (corn; post-emergence, postemergence, 125 g ai/ha, visual rating, scale 0 (no effect) to 100 (complete control), read-out: Corn plant response rating) was 20%, the plant injury at 500 g/ha (corn; pre-emergence, Preemergence, 500 g ai/ha, scale 0 to 100, read-out: Corn plant response rating) was 20% and the Corn plant response rating (crop injury, 0 = no effect, 100 = complete kill) at 125 g/ha (corn; pre-emergence, preemergence, 125 g ai/ha, 0 to 100 scale, 0 is no effect, 100 is complete control) was 0%.
